Source: the OPERA property sets (Mansouri et al. 2018)
≈ marks a conversion by molar mass, not a printed value.

Row | Structure (SMILES) | solubility (25 °C) | logP | solubility (20 °C)
1 | CNC(=O)ON=CC(C)(C)SC | 31700 µM (≈ 6030 µg/mL) |  | 
2 | CCOP(=S)(OCC)SCS(=O)(=O)CC |  | 1.99 | 2950 µM (≈ 861 µg/mL)
3 | CCOP(=S)(OCC)SCS(=O)C(C)(C)C (stereo not given) |  |  | 3610 µM (≈ 1100 µg/mL)
4 | CCOP(=S)(OCC)Oc1ccc(S(C)(=O)=O)cc1 |  |  | 2300 µM (≈ 746 µg/mL)
5 | CCOP(=S)(OCC)SCCS(=O)(=O)CC |  |  | 2880 µM (≈ 883 µg/mL)
6 | CCOP(=S)(OCC)SCS(=O)CC (stereo not given) |  |  | 28900 µM (≈ 8000 µg/mL)
7 | CCOP(=O)(OCC)Oc1ccc([N+](=O)[O-])cc1 |  |  | 8720 µM (≈ 2400 µg/mL)
8 | CCOP(=S)(OCC)SCCSCC |  |  | 59.4 µM (≈ 16.3 µg/mL)
9 | COP(=S)(OC)Oc1cc(Cl)c(Br)cc1Cl |  |  | 0.82 µM (≈ 0.3 µg/mL)
